Test results: the supplement of paper PMC10627819

Assays:
S. pneumoniae D39V [1] = experiment: fitness (endpoint OD595 vs no drug) (fraction); higher = more growth
Procedure, shortened: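 Bacterial fitness was scored as optical density at the stationary-phase transition relative to the robust mean of no-drug control wells. Scores are capped at 1. The growth data were OD595 readings every 30 min for 14 h at 37 °C, background-subtracted against the first reading, from 384-well plates inoculated at OD595 0.01 in TSB, LB Lennox or CY.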

B. subtilis 168 = experiment: Bliss interaction score (quartile over a dose matrix) (fitness difference); higher = more antagonism (negative = synergy)
Procedure, shortened: (§1)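 Fitness here means normalised growth, inferred for single drugs from the combination data. Growth was OD595 at entry into stationary phase, divided by the plate's robust no-drug mean and capped at 1. The Bliss score is observed minus expected fitness, with the expectation being the product, and its quartiles span technical, biological and donor/recipient replicates.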

S. aureus DSM 20231 = experiment: as above
Procedure, shortened: as §1

S. aureus Newman = experiment: as above
Procedure, shortened: as §1

S. pneumoniae D39V [2] = experiment: as above
Procedure, shortened: as §1
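For Bliss interaction score (quartile over a dose matrix) in this document: first quartile when negative (synergy) and third quartile when positive (antagonism).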
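For fitness (endpoint OD595 vs no drug) in this document: OD595 on entry to stationary phase over no-drug wells; at most 1.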

CC[C@H]1OC(=O)[C@H](C)[C@@H](O[C@H]2C[C@@](C)(OC)[C@@H](O)[C@H](C)O2)[C@H](C)[C@@H](O[C@@H]2O[C@H](C)C[C@H](N(C)C)[C@H]2O)[C@](C)(OC)C[C@@H](C)C(=O)[C@H](C)[C@@H](O)[C@]1(C)O [Clarithromycin] + C[C@H]1c2cccc(O)c2C(=O)C2=C(O)[C@]3(O)C(=O)C(C(N)=O)=C(O)[C@@H](N(C)C)[C@@H]3[C@@H](O)[C@@H]21 [Doxycycline]
fitness, S. pneumoniae D39V [1], one replicate
Settings | first compound 0.007812 µg/mL | first compound 0.01562 µg/mL | first compound 0.03125 µg/mL | first compound 0.0625 µg/mL | first compound 0.125 µg/mL | first compound 0.25 µg/mL
partner 0.003875 µg/mL | – | – | – | 0.674 | 0.375 | 0.0974
partner 0.00775 µg/mL | – | – | – | 0.736 | 0.317 | 0.115
partner 0.0155 µg/mL | 0.731 | 0.708 | 0.61 | – | – | –
partner 0.031 µg/mL | 0.681 | 0.669 | 0.609 | 0.464 | 0.143 | 0.101
partner 0.062 µg/mL | 0.587 | 0.482 | 0.266 | 0.267 | 0.129 | 0.0712

fitness, S. pneumoniae D39V [1]
Settings | first compound 0.0625 µg/mL | first compound 0.07 µg/mL | first compound 0.125 µg/mL | first compound 0.14 µg/mL | first compound 0.25 µg/mL | first compound 0.28 µg/mL
partner 0.0155 µg/mL | 0.574 | 0.0409 | 0.223 | 0.0521 | 0.143 | 0.0358
partner 0.031 µg/mL | – | 0.0283 | – | 0.0438 | – | 0.0338
partner 0.062 µg/mL | – | 0.0302 | – | 0.0541 | – | 0.0267

Settings | Bliss interaction score
B. subtilis 168 | -0.324
S. aureus DSM 20231 | -0.161
S. aureus Newman | -0.116
S. pneumoniae D39V [2] | -0.107

C/C(=C\C(=O)OCCCCCCCCC(=O)O)C[C@@H]1OC[C@H](C[C@@H]2O[C@H]2[C@@H](C)[C@H](C)O)[C@@H](O)[C@H]1O [Pseudomonic acid] + CO[C@H]1/C=C/O[C@@]2(C)Oc3c(C)c(O)c4c(O)c(c(/C=N/N5CCN(C)CC5)c(O)c4c3C2=O)NC(=O)/C(C)=C\C=C\[C@H](C)[C@H](O)[C@@H](C)[C@@H](O)[C@@H](C)[C@H](OC(C)=O)[C@@H]1C [Rifampicin]
S. pneumoniae D39V [1], partner 0.025 µg/mL, one replicate
Settings | fitness
first compound 0.03 µg/mL | 0.872
first compound 0.06 µg/mL | 0.79
first compound 0.12 µg/mL | 0.742

S. pneumoniae D39V [1], first compound 0.12 µg/mL
Settings | fitness
partner 0.05 µg/mL | 0.608
partner 0.2 µg/mL | 0.136

Settings | Bliss interaction score
B. subtilis 168 | 0.0416
S. aureus DSM 20231 | 0.0229
S. aureus Newman | -0.0134
S. pneumoniae D39V [2] | 0.14

CC[C@H]1OC(=O)[C@H](C)[C@@H](O[C@H]2C[C@@](C)(OC)[C@@H](O)[C@H](C)O2)[C@H](C)[C@@H](O[C@@H]2O[C@H](C)C[C@H](N(C)C)[C@H]2O)[C@](C)(OC)C[C@@H](C)C(=O)[C@H](C)[C@@H](O)[C@]1(C)O [Clarithromycin] + Cc1onc(-c2ccccc2)c1C(=O)N[C@@H]1C(=O)N2[C@@H]1SC(C)(C)[C@@H]2C(=O)O [Oxacillin]
fitness, S. pneumoniae D39V [1], one replicate
Settings | first compound 0.007812 µg/mL | first compound 0.01562 µg/mL | first compound 0.03125 µg/mL
partner 0.01 µg/mL | 0.9 | 0.856 | 0.678
partner 0.02 µg/mL | 0.911 | 0.833 | 0.646
partner 0.04 µg/mL | 0.414 | 0.48 | 0.418

fitness, S. pneumoniae D39V [1]
Settings | first compound 0.0625 µg/mL | first compound 0.07 µg/mL | first compound 0.125 µg/mL | first compound 0.14 µg/mL | first compound 0.25 µg/mL | first compound 0.28 µg/mL
partner 0.005 µg/mL | – | 0.179 | – | 0.128 | – | 0.119
partner 0.01 µg/mL | 0.564 | 0.185 | – | 0.136 | 0.165 | 0.0928
partner 0.02 µg/mL | 0.54 | 0.182 | – | 0.117 | 0.158 | 0.107
partner 0.04 µg/mL | – | – | 0.254 | – | 0.0887 | –

Settings | Bliss interaction score
B. subtilis 168 | 0.0227
S. aureus DSM 20231 | 0.0328
S. aureus Newman | -0.0384
S. pneumoniae D39V [2] | 0.0844
